Reference: PubChem BioAssay (NCI)
Several values for one entry are separate records, joined by “and”; a condition that tells them apart may be missing. Identical values can stand only once.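 Assay format: 96-well plates, 48-hour exposure. At the GI50, growth is halved. TGI denotes the concentration required for complete inhibition of growth.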

Legend:
Assay in all cases: growth of human tumour cells (NCI), 48 h
[1] = test system: HOP-92 NSCLC
[2] = test system: HCT-116 colon
[3] = test system: PC-3 prostate
[4] = test system: TK-10 renal
[5] = test system: A498 renal
[6] = test system: SF-539 CNS
[7] = test system: SNB-75 CNS
[8] = test system: OVCAR-4 ovarian
[9] = test system: HOP-62 NSCLC
[10] = test system: RXF 393 renal

Row | Structure (SMILES) | GI50 [1] [µM] | TGI [1] | GI50 [2] [µM] | TGI [2] | GI50 [3] [µM] | TGI [3] [µM] | GI50 [4] [µM] | TGI [4] | GI50 [5] [µM] | TGI [5] [µM] | GI50 [6] [µM] | TGI [6] | GI50 [7] [µM] | TGI [7] | GI50 [8] [µM] | TGI [8] | GI50 [9] [µM] | TGI [9] | GI50 [10] [µM] | TGI [10]
1 | CC(C)C/C(=N\NC(=O)c1ccncc1)c1cc(Cl)ccc1O | 0.306 | 28.6 µM | 0.244 | 11 µM | 1.01 | 73.5 | 0.348 | > 100 µM | 2.12 | 45.7 | 0.363 | 5.58 µM | 11.6 | > 100 µM | 0.26 | > 32.4 µM | 0.465 | 64.8 µM | 2.37 | > 41 µM
2 | N=C(N)c1ccc(OCCCCCOc2ccc(C(=N)N)cc2)cc1 | 1.89 | 21.5 µM and > 100 µM | 4.59 | > 50 µM and 37.8 µM and > 100 µM | 6.92 | > 100 | 8.49 | 18.9 µM and 27.6 µM and 48.3 µM | 7.24 | > 50 | 8.36 | 20.7 µM and 27.1 µM | – | 33.1 µM and 18.3 µM and > 100 µM | 3.6 | 18.7 µM and 35.4 µM and 53.5 µM | 3.38 | 10.6 µM and 32.8 µM and 30.3 µM | 6.75 | 17.5 µM and 38.6 µM
3 | C=CC[PH+](c1ccccc1)c1ccccc1.C=CC[PH+](c1ccccc1)c1ccccc1.[Pt+2].[S-]c1ncccn1.[S-]c1ncccn1 | 2.7 | 19.7 µM | 2.17 | 4.88 µM | 11 | 37.7 | 5.8 | 46.2 µM | 11.5 | > 100 | 21.4 | 52.3 µM | 8.25 | > 100 µM | 5.35 | > 100 µM | 39.5 | > 100 µM | 4.67 | 18.3 µM
4 | O=C1C2C(C(=O)N1CC[Se][Se]CCN1C(=O)C3C(C1=O)[C@H]1C=C[C@@H]3C1)[C@H]1C=C[C@@H]2C1 (some centres undefined) | 0.575 | 2.29 µM | 0.409 | 2.87 µM | 0.844 | 4.39 | 0.303 | 0.994 µM | 0.686 | 2.26 | 0.223 | 0.467 µM | 0.171 | 0.488 µM | 1.04 | 4.52 µM | 0.488 | 2.66 µM | 0.338 | 1.11 µM
5 | O=C(/C=C/c1cccc(Oc2ccc(Cl)cc2)c1)c1ccccc1 | 21.8 | 50.1 µM | 20.6 | 41.7 µM | 19.7 | 37.8 | 192 | 342 µM | 163 | 312 | 21.3 | 53.2 µM | 124 | 269 µM | 75 | 234 µM | 113 | 272 µM | 44.2 | 152 µM
6 | Cc1ccc(-c2nc(C(Cl)Cl)nc3cc(C)nn23)cc1 | 1.95 | 7.64 µM | 2.09 | > 100 µM | 2.55 | > 100 | 3.55 | > 100 µM | 1.75 | 4.7 | 4.14 | > 100 µM | 1.48 | 8.39 µM | 1.07 | 3.87 µM | 1.31 | 8.58 µM | 0.673 | 2.36 µM
7 | CCN(CC)CCS(=O)(=O)CCNc1ccnc2cc(Cl)ccc12 | 0.619 | 7.39 µM | 0.834 | 4.63 µM | 3.82 | > 100 | 1.07 | 4.3 µM | 2.25 | 8.28 | 2.93 | 14.3 µM | 2.07 | > 29 µM | 2.07 | > 62.2 µM | 4.99 | > 100 µM | 1.32 | 5.8 µM
8 | Cc1cc2c(cc1C)[n+](=O)c(C(=O)/C=C/c1ccccc1[N+](=O)[O-])c(C)n2[O-] | – | 67.4 µM | – | > 100 µM | – | > 100 | – | 69.7 µM | – | 91.8 | – | 47.2 µM | – | 41.1 µM | – | > 100 µM | – | > 84.1 µM | – | 46.2 µM
9 | C=CC(C)(O)CCC1C(=C)C(O)CC2C(C)(C)CCCC12C (centres undefined) | – | 34 µM | – | 31.8 µM | – | 32.2 | – | 47.5 µM | – | 33.3 | – | 31.7 µM | – | > 100 µM | – | 47.5 µM | – | 43.6 µM | – | 29.5 µM
10 | Cc1n(Cc2ccc3ccccc3n2)cc[n+]1Cc1ccc2ccccc2c1 | 0.355 | 3.06 µM | 0.61 | 10.4 µM | 0.467 | 10.6 | 1.94 | 7.96 µM | 1.84 | 10.2 | 0.579 | 8.76 µM | 0.322 | 3.39 µM | 0.342 | 11.3 µM | 1.79 | 7.36 µM | 3.59 | 17.4 µM
11 | CC1=NN(c2nc(N)nc(/C=C\c3ccccc3)n2)C(C)(C)C1 | 19.5 | 39.5 µM | 2.76 | 14.2 µM | 4.41 | 19.7 | 7.76 | 22.2 µM | 5.58 | 20.7 | 6.25 | 22.4 µM | 6.36 | 25.6 µM | 4.16 | 16.6 µM | 14.9 | 29.7 µM | 5.8 | 20.1 µM
12 | COc1cc2c(cc1OC)C(SC)C(=O)N(Cc1cccc(OC)c1OC)CC2 (centres undefined) | – | 16.9 µM | – | > 70.2 µM | – | > 69 | – | > 100 µM | – | > 54.9 | – | 9.13 µM | – | > 100 µM | – | 98.5 µM | – | > 45.8 µM | – | > 48.1 µM
13 | Oc1ccc(-c2[nH]c3ccccc3c2-c2nc3ccccc3o2)cc1 | 2.73 | 15.9 µM | 3.15 | 13 µM | 3.35 | 18.5 | 5.49 | 16.8 µM | 2.18 | 14.9 | 7.56 | 22.1 µM | 1.44 | 10.4 µM | 2.14 | 14.7 µM | 5.01 | 18.2 µM | 4.24 | 18.9 µM
